Where “and” joins values, the source holds several entries; their conditions need not be identical. Equal entries are not always repeated. One block for each compound: values may come before it.
Test system: 556581-035-R-J1-PDC complex spheroid growth
Test: Anticancer human tumor 556581-035-R-J1-PDC patient-derived ovarian carcinoma cell line growth inhibition [Asc]
Settings: for viability, T/C: stronger effect = lower value
How it was run: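 Concentration series start at each agent's clinical Cmax, or at 10 microM when none is established, and drop in half-log steps; agents are applied alone or together to complex spheroids built with HUVEC and hMSC.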

[1] = curve of first compound, second compound 0.1 µM
[2] = curve of first compound, second compound 0.316 µM
[3] = curve of first compound, second compound 1 µM
[4] = curve of first compound, second compound 3.16 µM
[5] = curve of first compound, second compound 10 µM
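Note: spheroids exposed to agents for 7 days before viability read.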

SMILES: C=CC(=O)N1CCN(c2nc(=O)n(-c3c(C)ccnc3C(C)C)c3nc(-c4c(O)cccc4F)c(F)cc23)C(C)C1 (centres undefined)
viability, T/C (compound 0.0316 µM): 111% and 113% and 95.5%
viability, T/C (compound 0.1 µM): 88.9% and 109% and 106%
viability, T/C (compound 0.316 µM): 104% and 110% and 108%
viability, T/C (compound 1 µM): 83.5% and 88.5% and 109%
viability, T/C (compound 3.16 µM): 99% and 99.9% and 109%
viability, T/C (compound 10 µM): 111% and 76.8% and 107%
IC50 (curve of compound): > 10000 nM

SMILES: NC(=O)C(=Cn1cnc(-c2cc(C(F)(F)F)cc(C(F)(F)F)c2)n1)c1cncnc1 + Cc1c(S(C)(=O)=O)c(-c2cc(F)cc(N3CCN(c4ccc(NS(=O)(=O)c5ccc(NC(CCN6CCC(C(=O)OCCCP(=O)(O)O)CC6)CSc6ccccc6)c(S(=O)(=O)C(F)(F)F)c5)cc4)CC3)c2)c(-c2ccc(Cl)cc2)n1C(C)C
IC50 [1]: > 300 nM
IC50 [2]: > 300 nM
IC50 [3]: > 300 nM
IC50 [4]: 148 nM
IC50 [5]: 87.6 nM
viability, T/C (second compound 0.1 µM, first compound 0.000949 µM): 70.9%
viability, T/C (second compound 0.1 µM, first compound 0.003 µM): 72.3%
viability, T/C (second compound 0.1 µM, first compound 0.00949 µM): 75%
viability, T/C (second compound 0.1 µM, first compound 0.03 µM): 57.8%
viability, T/C (second compound 0.1 µM, first compound 0.0949 µM): 75.9%
viability, T/C (second compound 0.1 µM, first compound 0.3 µM): 66.1%
viability, T/C (second compound 0.316 µM, first compound 0.000949 µM): 81.2%
viability, T/C (second compound 0.316 µM, first compound 0.003 µM): 75.6%
viability, T/C (second compound 0.316 µM, first compound 0.00949 µM): 80.3%
viability, T/C (second compound 0.316 µM, first compound 0.03 µM): 69.5%
viability, T/C (second compound 0.316 µM, first compound 0.0949 µM): 66.3%
viability, T/C (second compound 0.316 µM, first compound 0.3 µM): 52.9%
viability, T/C (second compound 1 µM, first compound 0.000949 µM): 78%
viability, T/C (second compound 1 µM, first compound 0.003 µM): 63.5%
viability, T/C (second compound 1 µM, first compound 0.00949 µM): 63.8%
viability, T/C (second compound 1 µM, first compound 0.03 µM): 68.5%
viability, T/C (second compound 1 µM, first compound 0.0949 µM): 52.9%
viability, T/C (second compound 1 µM, first compound 0.3 µM): 59.5%
viability, T/C (second compound 3.16 µM, first compound 0.000949 µM): 57.2%
viability, T/C (second compound 3.16 µM, first compound 0.003 µM): 61.2%
viability, T/C (second compound 3.16 µM, first compound 0.00949 µM): 70.3%
viability, T/C (second compound 3.16 µM, first compound 0.03 µM): 63.9%
viability, T/C (second compound 3.16 µM, first compound 0.0949 µM): 59.6%
viability, T/C (second compound 3.16 µM, first compound 0.3 µM): 34%
viability, T/C (second compound 10 µM, first compound 0.000949 µM): 73%
viability, T/C (second compound 10 µM, first compound 0.003 µM): 63.9%
viability, T/C (second compound 10 µM, first compound 0.00949 µM): 61%
viability, T/C (second compound 10 µM, first compound 0.03 µM): 55%
viability, T/C (second compound 10 µM, first compound 0.0949 µM): 49.2%
viability, T/C (second compound 10 µM, first compound 0.3 µM): 45.6%

Second part, led by results:

IC50 (curve of first compound, second compound 0.03 µM): 58.9 nM
IC50 (curve of first compound, second compound 0.0949 µM): 42.7 nM
IC50 (curve of first compound, second compound 0.3 µM): 39.4 nM
IC50 (curve of first compound, second compound 0.949 µM): 51.1 nM
IC50 (curve of first compound, second compound 3 µM): 33.3 nM
SMILES: COc1c(OCCCN2CCOCC2)ccc2c3n(c(=NC(=O)c4cnc(N)nc4)nc12)CCN3 + CCN1C(C(=O)NC23CCC(C(=O)O)(CC2)CC3)C(c2cccc(Cl)c2F)C2(C(=O)Nc3cc(Cl)ccc32)C12CCCCC2
viability, T/C (second compound 0.03 µM, first compound 0.00316 µM): 71.9%
viability, T/C (second compound 0.03 µM, first compound 0.01 µM): 65.5%
viability, T/C (second compound 0.03 µM, first compound 0.0316 µM): 59.2%
viability, T/C (second compound 0.03 µM, first compound 0.1 µM): 43.3%
viability, T/C (second compound 0.03 µM, first compound 0.316 µM): 20%
viability, T/C (second compound 0.03 µM, first compound 1 µM): 13.4%
viability, T/C (second compound 0.0949 µM, first compound 0.00316 µM): 78.3%
viability, T/C (second compound 0.0949 µM, first compound 0.01 µM): 70.1%
viability, T/C (second compound 0.0949 µM, first compound 0.0316 µM): 51.7%
viability, T/C (second compound 0.0949 µM, first compound 0.1 µM): 39.3%
viability, T/C (second compound 0.0949 µM, first compound 0.316 µM): 25.7%
viability, T/C (second compound 0.0949 µM, first compound 1 µM): 13.5%
viability, T/C (second compound 0.3 µM, first compound 0.00316 µM): 76.7%
viability, T/C (second compound 0.3 µM, first compound 0.01 µM): 70%
viability, T/C (second compound 0.3 µM, first compound 0.0316 µM): 50.2%
viability, T/C (second compound 0.3 µM, first compound 0.1 µM): 39%
viability, T/C (second compound 0.3 µM, first compound 0.316 µM): 22.5%
viability, T/C (second compound 0.3 µM, first compound 1 µM): 15.4%
viability, T/C (second compound 0.949 µM, first compound 0.00316 µM): 78.3%
viability, T/C (second compound 0.949 µM, first compound 0.01 µM): 75.2%
viability, T/C (second compound 0.949 µM, first compound 0.0316 µM): 58.2%
viability, T/C (second compound 0.949 µM, first compound 0.1 µM): 40.2%
viability, T/C (second compound 0.949 µM, first compound 0.316 µM): 21.6%
viability, T/C (second compound 0.949 µM, first compound 1 µM): 45.8%
viability, T/C (second compound 3 µM, first compound 0.00316 µM): 62.2%
viability, T/C (second compound 3 µM, first compound 0.01 µM): 57.9%
viability, T/C (second compound 3 µM, first compound 0.0316 µM): 46.7%
viability, T/C (second compound 3 µM, first compound 0.1 µM): 45.5%
viability, T/C (second compound 3 µM, first compound 0.316 µM): 27.5%
viability, T/C (second compound 3 µM, first compound 1 µM): 14.6%

IC50 (curve of compound): > 1000 nM
SMILES: CCN1CCN(Cc2ccc(Nc3ncc(F)c(-c4cc(F)c5nc(C)n(C(C)C)c5c4)n3)nc2)CC1
viability, T/C (compound 0.00316 µM): 105% and 78% and 90.7%
viability, T/C (compound 0.01 µM): 84.4% and 87.4% and 107%
viability, T/C (compound 0.0316 µM): 88.9% and 97.7% and 107%
viability, T/C (compound 0.1 µM): 85.2% and 84.8% and 106%
viability, T/C (compound 0.316 µM): 76.2% and 64.5% and 69.5%
viability, T/C (compound 1 µM): 76.5% and 76.4% and 66.7%

IC50 [1]: 2110 nM
IC50 [2]: 1550 nM
IC50 [3]: 1270 nM
IC50 [4]: 1010 nM
IC50 [5]: 1010 nM
SMILES: C=C(F)C(=O)N1CCN(c2nc(OCC3CCCN3C)nc3c2CCN(c2cccc4cccc(Cl)c24)C3)CC1CC#N (centres undefined) + Cc1c(S(C)(=O)=O)c(-c2cc(F)cc(N3CCN(c4ccc(NS(=O)(=O)c5ccc(NC(CCN6CCC(C(=O)OCCCP(=O)(O)O)CC6)CSc6ccccc6)c(S(=O)(=O)C(F)(F)F)c5)cc4)CC3)c2)c(-c2ccc(Cl)cc2)n1C(C)C
viability, T/C (second compound 0.1 µM, first compound 0.0316 µM): 80.6%
viability, T/C (second compound 0.1 µM, first compound 0.1 µM): 87.7%
viability, T/C (second compound 0.1 µM, first compound 0.316 µM): 79.1%
viability, T/C (second compound 0.1 µM, first compound 1 µM): 76.9%
viability, T/C (second compound 0.1 µM, first compound 3.16 µM): 35.4%
viability, T/C (second compound 0.1 µM, first compound 10 µM): 30.3%
viability, T/C (second compound 0.316 µM, first compound 0.0316 µM): 69.3%
viability, T/C (second compound 0.316 µM, first compound 0.1 µM): 86.7%
viability, T/C (second compound 0.316 µM, first compound 0.316 µM): 87.8%
viability, T/C (second compound 0.316 µM, first compound 1 µM): 68.6%
viability, T/C (second compound 0.316 µM, first compound 3.16 µM): 18.2%
viability, T/C (second compound 0.316 µM, first compound 10 µM): 0.26%
viability, T/C (second compound 1 µM, first compound 0.0316 µM): 73.7%
viability, T/C (second compound 1 µM, first compound 0.1 µM): 71.8%
viability, T/C (second compound 1 µM, first compound 0.316 µM): 64.9%
viability, T/C (second compound 1 µM, first compound 1 µM): 56.8%
viability, T/C (second compound 1 µM, first compound 3.16 µM): 23.5%
viability, T/C (second compound 1 µM, first compound 10 µM): 25.7%
viability, T/C (second compound 3.16 µM, first compound 0.0316 µM): 63.1%
viability, T/C (second compound 3.16 µM, first compound 0.1 µM): 61.5%
viability, T/C (second compound 3.16 µM, first compound 0.316 µM): 67.7%
viability, T/C (second compound 3.16 µM, first compound 1 µM): 50.3%
viability, T/C (second compound 3.16 µM, first compound 3.16 µM): 22.1%
viability, T/C (second compound 3.16 µM, first compound 10 µM): 27%
viability, T/C (second compound 10 µM, first compound 0.0316 µM): 59.6%
viability, T/C (second compound 10 µM, first compound 0.1 µM): 54.5%
viability, T/C (second compound 10 µM, first compound 0.316 µM): 57.8%
viability, T/C (second compound 10 µM, first compound 1 µM): 50.4%
viability, T/C (second compound 10 µM, first compound 3.16 µM): 8.45%
viability, T/C (second compound 10 µM, first compound 10 µM): 0.49%
